Measured values taken from ChEMBL document CHEMBL1150557, “Molecular design of novel PGI2 agonists without PG skeleton. I” (Bioorg Med Chem Lett, 1995).

What was measured:
Prostacyclin receptor = Prostacyclin receptor (Homo sapiens, UniProt P43119); test: Prostaglandin I2 receptor binding by displacement of [3H]iloprost from human platelets
Homo sapiens = organism: Homo sapiens; test: Evaluated for inhibition of 4 uM ADP-induced human platelet aggregation; format: functional, organism-based

Prostacyclin receptor, sequence (P43119 whole entry): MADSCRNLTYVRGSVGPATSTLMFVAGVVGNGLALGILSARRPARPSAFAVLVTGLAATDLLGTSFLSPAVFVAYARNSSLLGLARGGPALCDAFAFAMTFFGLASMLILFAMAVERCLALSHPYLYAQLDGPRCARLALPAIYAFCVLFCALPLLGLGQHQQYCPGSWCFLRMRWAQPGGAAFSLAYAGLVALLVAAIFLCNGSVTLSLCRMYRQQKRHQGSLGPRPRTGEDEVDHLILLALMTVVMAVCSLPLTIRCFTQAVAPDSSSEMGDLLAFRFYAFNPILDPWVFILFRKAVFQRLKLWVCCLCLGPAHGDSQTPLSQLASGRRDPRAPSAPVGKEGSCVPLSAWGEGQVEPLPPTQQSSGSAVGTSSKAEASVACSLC

| Compound | IC50 (Prostacyclin receptor) [µM] | IC50 (Homo sapiens) [µM] |
| --- | --- | --- |
| CCCCCC(O)/C=C/CCCc1cccc(OCC(=O)O)c1 (configuration not stated) | 23 |  |
| CCCCCC(O)/C=C/CCC1CCCc2c(OCC(=O)O)cccc21 (configuration not stated) | 9.6 |  |
| O=C(O)COc1cccc2c1CCCC2CC/C=N/OC(c1ccccc1)c1ccccc1 (configuration not stated) | 0.6 | 2.1 |
| O=C(O)COc1cccc(CCC/C=N/OC(c2ccccc2)c2ccccc2)c1 | 3.9 |  |
| O=C(O)COc1cccc2c1CCC(C/C=C\CC(c1ccccc1)c1ccccc1)C2 (configuration not stated) | 3 |  |
| O=C(O)COc1cccc2c1CCC(C/C=C/CC(c1ccccc1)c1ccccc1)C2 (configuration not stated) | 3.1 |  |
| O=C(O)COc1cccc2c1CCC(C/C=C/CCc1ccccc1)C2 (configuration not stated) | 5.3 |  |
| O=C(O)COc1cccc2c1CCC(C/C=N/OC(c1ccccc1)c1ccccc1)C2 (configuration not stated) | 0.65 | 1.1 |
| O=C(O)COc1cccc2c1CCC(C/C=C/C(O)Cc1ccccc1)C2 (configuration not stated) | 4.9 |  |
| CCCCCC(O)/C=C/CC1CCc2c(cccc2OCC(=O)O)C1 (configuration not stated) | 7.8 |  |
